{"source": "patent US20090061022A1", "about": "“Pharmaceutical composition comprising arsenite for the treatment of malignancy” (priority 2004, published 2009)", "key": {"[1]": {"test_system": "panel of 12 human cancer cell lines", "experiment": "Cytotoxic activity, whole panel of 12 human cancer cell lines, modified propidium iodide assay", "conditions": "for times more potent than arsenic acid sodium salt: panel of 12", "method": "Nine kinds of human cancer cell lines out of six kinds of cancers were grown at 37° C. under a controlled atmosphere of 95% air and 5% CO2. The cells were grown on monolayer cultures of RPMI 1640 cell culture medium supplemented with 10% fetal calf serum.\nThe grown cells were harvested from exponential phase cultures by trypsinization and counted. The counted cells were placed in a plate, which has ninety six wells. Each well on the plate is in a shape of a flat-bottomed microtitre. Density of the cells in a suspension was adjusted depending on the cell line. The suspension was prepared by diluting the grown cells with the culture medium (RPMI 1640). Concentration of the cells were varied from 5×10^4 to 1×10^5 viable cells/ml. 100 μl of the suspension was placed in each well of the plate. […] Then add 50 μl of culture medium (RPMI 1640) only to 6 wells, 50 μl/well, among the 96 wells of one plate. It is called controlled. One well is filled with culture medium plus 5-FU. And another 50 μl of culture medium plus one of the stock solutions were added to each of the left 89 wells to allow cells to resume exponential growth.\nIn a further study, the cytotoxic activity profile of sodium meta-arsenite and arsenic acid sodium salt was investigated in different panels containing twelve (12) human cancer cell lines from eight (8) kinds of human cancers. The cancer cell samples were prepared as described in 1-1-B. Propidium iodide fluorescence assay method for this test was modified as the follows."}, "RXF 944LX": {"test_system": "RXF 944LX", "experiment": "Dose finding study in human renal cancer model RXF 944LX in nude mice (i.p. days 0, 7, 14)", "conditions": "for BW loss % (day) / Drug-related deaths / Rating / SGD (specific growth delay) / T/C %: days 0, 7, 14", "excerpt": "In a dose finding study, the potential anticancer activity of sodium meta-arsenite and arsenic acid sodium salt versus arsenic trioxide was examined in the human renal cancer model, RXF 944LX.\nCancer fragments (1-2 mm in diameter), obtained from xenografts in serial passage in nude mice, were implanted subcutaneously (S.C.) in a flank of male NRMI nude mice (one fragment per mouse). Mice with appropriate cancer volumes (5-7 mm in diameter) were randomly distributed to treatment and control groups (4 mice/group). The start of treatment was day 0. Cancer volume and body weights were measured at least twice per week.\n1) Sodium meta-arsenite (3, 10, 30 mg/kg/day), 2) Arsenic acid sodium salt (3, 10, 30 mg/kg/day) and 3) Arsenic trioxide (3, 10, 30 mg/kg/day) were administered intraperitoneally (i.p.) once daily on days 0, 7 and 14.\nStock solution of sodium meta-arsenite and arsenic acid sodium salt (3 mg/ml) were prepared in 5% (w/v) dextrose solution, respectively, to minimize acute arsenic toxicity. For arsenic trioxide, 9 mg of arsenic trioxide was dissolved in 1M NaOH (75 μl) followed by mixing with sterile aqua injectabilia (2175 μl) and sterile 20% (w/v) dextrose in water (500 μl). Further dilution to the desired concentration was done with a 5% dextrose solution to give a final concentration of 3 mg/ml.\nThe cancer volume of each animal was determined by two-dimensional measurement using calipers. The volume was calculated according to the formula: (a×b^2)×0.5; wherein a and b represent two perpendicular diameters in which a (length) is the larger diameter and b (width) the smaller diameter.\nRelative cancer volumes (RCV) were calculated for each individual cancer by dividing the cancer volume on day X by the cancer volume on day 0 multiplied by 100%. The cancer volume of a treatment group was expressed as the median RCV of all mice of the group. Median RCV values were used for drawing growth curves and treatment evaluation. Optimal cancer growth inhibition at a particular day within the treatment period was calculated from the median RCV values of the treated (T) versus the controlled (C) group multiplied by 100%. A T/C value<50% was considered as anti-cancer activity."}, "[2]": {"experiment": "Maximum tolerated dose assessment after daily oral gavages for 14 days in the mouse", "type": "in vivo, CD-1 mice", "method": "The objective of this oral toxicity study was to establish a MTD after repeated administration of sodium meta-arsenite to mice.\nAmpoules of sodium meta-arsenite (dissolved in 10% (w/v) glucose in water) in concentrations of 1, 1.6, 2.6, 4.1 and 6.5 mg/ml were stored in a refrigerator in the dark. Based on the previous study, the following doses were selected: 10, 16, 26, and 41 and 65 mg/kg/day. Each dose was administered daily by oral gavages to groups of 4 male and 4 CD-1 mice for 14 days, followed by a 14-day recovery period.\nClinical signs were evaluated daily and body weights were recorded twice weekly. Scheduled termination was performed on day 29 (after 14 days of recovery). Macroscopic examination was performed on all animals."}, "[3]": {"test_system": "panel of forty-one (41) human cancer cell lines", "experiment": "Cytotoxic activity, panel of forty-one (41) human cancer cell lines", "quoted_text": "In a next study, the cytotoxic activity of sodium meta-arsenite was head-to-head compared with arsenic trioxide in panels loaded with 41 cancer cell lines from ten human cancers."}, "[4]": {"conditions": "panel of 12 human cancer cell lines, 4 days"}, "[5]": {"conditions": "10 mg/kg i.p., listed as sodium meta-arsenite"}, "[6]": {"conditions": "panel of 41 human cancer cell lines"}}, "note": "Values joined by “and” are separate entries in the source; they are usually repeats but may differ in a detail not shown here. Identical values can stand only once."}
{"smiles": "O=[As][O-].[Na+]", "note": "[Sodium meta-arsenite, sodium meta-arsenite]", "values": [{"measurement": "human cancer cell lines in which active, percent of 12", "setting": "[1]; 1 μg/ml", "result": 33, "unit": "%"}, {"measurement": "human cancer cell lines in which active, percent of 12", "setting": "[1]; dose level 10 μg/ml", "result": 100, "unit": "%"}, {"measurement": "human cancer cell lines in which active, percent of 12", "setting": "[1]; dose level 100", "result": 100, "unit": "%"}, {"measurement": "cytotoxic activity in panel of 12", "setting": "[1]; dose level lower than 1 μg/ml", "result": "did not display any cytotoxic activity at all"}, {"measurement": "times more potent than arsenic acid sodium salt", "setting": "[1]; in μg/ml", "result": "over 20 times"}, {"measurement": "times more potent than arsenic acid sodium salt", "setting": "[1]; on a molar basis", "result": "approximately 10 times"}, {"measurement": "Mean IC50", "setting": "[1]; [4]", "result": 0.9, "unit": "µg/mL"}, {"measurement": "Mean IC70", "setting": "[1]; [4]", "result": "2.0 μg/ml and 15 μM"}, {"measurement": "Mean IC90", "setting": "[1]; [4]", "result": 6.8, "unit": "µg/mL"}, {"measurement": "IC50", "setting": "[1]; read-out: Mean IC50, panel of 12 human cancer cell lines, 4 days", "result": 7, "unit": "µM"}, {"measurement": "IC90", "setting": "[1]; read-out: Mean IC90, panel of 12 human cancer cell lines, 4 days", "result": 52, "unit": "µM"}, {"measurement": "BW loss % (day)", "setting": "RXF 944LX; 3 mg/kg i.p.", "result": "+6.8 (21) %"}, {"measurement": "Drug-related deaths", "setting": "RXF 944LX; 3 mg/kg i.p.", "result": "0/4"}, {"measurement": "Rating", "setting": "RXF 944LX; 3 mg/kg i.p.", "result": "+ (+T/C < 50)"}, {"measurement": "SGD (specific growth delay)", "setting": "RXF 944LX; 3 mg/kg i.p.", "result": 0.4}, {"measurement": "T/C %", "setting": "RXF 944LX; 3 mg/kg i.p.", "result": 19, "unit": "%"}, {"measurement": "BW loss % (day)", "setting": "RXF 944LX; 10 mg/kg i.p.", "result": "+8.7 (21) %"}, {"measurement": "Drug-related deaths", "setting": "RXF 944LX; 10 mg/kg i.p.", "result": "0/4"}, {"measurement": "Rating", "setting": "RXF 944LX; 10 mg/kg i.p.", "result": "− (−T/C ≧ 50%)"}, {"measurement": "SGD (specific growth delay)", "setting": "RXF 944LX; 10 mg/kg i.p.", "result": "−0.1"}, {"measurement": "T/C %", "setting": "RXF 944LX; 10 mg/kg i.p.", "result": 51, "unit": "%"}, {"measurement": "BW loss % (day)", "setting": "RXF 944LX; [5]", "result": "no lethality or body weight loss was observed"}, {"measurement": "Drug-related deaths", "setting": "RXF 944LX; [5]", "result": "no lethality or body weight loss was observed"}, {"measurement": "Drug-related deaths", "setting": "RXF 944LX; 30 mg/kg i.p.", "result": "4/4"}, {"measurement": "Drug-related deaths", "setting": "RXF 944LX; 30 mg/kg i.p., listed as sodium meta-arsenite", "result": "died within a few days after the first injection"}, {"measurement": "Maximum Tolerated Dose (MTD)", "setting": "RXF 944LX; i.p. once daily on days 0, 7 and 14, RXF 944LX bearing nude mice", "result": 10, "unit": "mg/kg/day"}, {"measurement": "Findings", "setting": "[2]; 10 mg/kg/day oral gavage 14 days, mouse", "result": "No findings were noted"}, {"measurement": "Findings", "setting": "[2]; 16 mg/kg/day oral gavage 14 days, mouse", "result": "Piloerection on the head was noted for one male on days 4 and 5"}, {"measurement": "Findings (mortality)", "setting": "[2]; 26 mg/kg/day oral gavage 14 days, mouse", "result": "No unscheduled mortality occurred"}, {"measurement": "Findings (mortality)", "setting": "[2]; 41 mg/kg/day oral gavage 14 days, mouse", "result": "All males died on days 2-4 and all females on days 2-7"}, {"measurement": "Findings (mortality)", "setting": "[2]; 65 mg/kg/day oral gavage 14 days, mouse", "result": "All animals died on days 2 or 3, all females died on day 1 or 2"}, {"measurement": "MTD (or LD10 value)", "setting": "[2]; mice, males and females, oral once daily 14 days, calculated", "result": 32, "unit": "mg/kg/day"}, {"measurement": "MTD", "setting": "[2]; mouse, oral once daily 14 days", "result": 96, "unit": "mg/m^2/day"}, {"measurement": "activity in panel of 41", "setting": "[3]; 0.01 μg/ml and 0.001 μg/ml", "result": "showed no activity"}, {"measurement": "cancer cell lines that responded, out of forty one (41)", "setting": "[3]; 0.1 μg/ml", "result": 16}, {"measurement": "cancer cell lines that responded, percent of 41", "setting": "[3]; 1 μg/ml, more than 70% growth inhibition", "result": 80, "unit": "%"}, {"measurement": "cancer cell lines in which active, percent of 41", "setting": "[3]; 10 μg/ml", "result": 100, "unit": "%"}, {"measurement": "selectivity (individual IC70<½ mean IC70), fraction of cell lines", "setting": "[3]; breast (mammary) cancer cell lines", "result": "¾"}, {"measurement": "fold more potent than arsenic trioxide", "setting": "[3]; conclusion of in vitro data", "result": "at least 10 fold"}, {"measurement": "selectivity (individual IC70<½ mean IC70), fraction of cell lines", "setting": "[3]; leukemia cell lines", "result": "¾"}, {"measurement": "selectivity (individual IC70<½ mean IC70), fraction of cell lines", "setting": "[3]; melanoma cell lines", "result": "4/7"}, {"measurement": "Mean IC50", "setting": "[3]; [6]", "result": 0.129, "unit": "µg/mL"}, {"measurement": "Mean IC70", "setting": "[3]; [6]", "result": "0.329 μg/ml and 2.53 μM"}, {"measurement": "Mean IC90", "setting": "[3]; [6]", "result": 1.691, "unit": "µg/mL"}, {"measurement": "Mean IC70", "setting": "[3]; panel of 41 human cancer cell lines, listed as sodium meta-arsenite", "result": "0.329 μg/ml and 2.53 μM"}, {"measurement": "IC50", "setting": "[3]; read-out: Mean IC50, panel of 41 human cancer cell lines", "result": 0.99, "unit": "µM"}, {"measurement": "IC90", "setting": "[3]; read-out: Mean IC90, panel of 41 human cancer cell lines", "result": 13, "unit": "µM"}]}
